Assay type in all cases: cell-based
One experiment concerns the target KDR (Homo sapiens (Human), UniProt P35968). In words: KDR autophosphorylation ELISA in HUVEC cells. The following applies: cellular, VEGF165 stimulated. Summed up:
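Inhibition of VEGF165-induced KDR phosphorylation was determined in serum-starved HUVEC after 1 h compound pretreatment and 5 min stimulation with 100 ng/mL VEGF165. Lysate phospho-KDR was measured by ELISA; IC50 values came from a 4-parameter logistic fit of 8-point curves.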

A further experiment concerns the target AXL (Homo sapiens (Human), UniProt P30530). As to the kind of experiment: AXL autophosphorylation ELISA in A-172 cells. The following applies: cellular, Gas6 stimulated. In short, it runs like this: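 Serum-starved (24 h) A-172 glioblastoma cells pretreated 1 h with compounds (8-point curve, 0.3% DMSO), then stimulated 15 min with 1 μg/mL Gas6. Lysate phospho-AXL measured by sandwich ELISA against a phospho-AXL standard; IC50 from 4-parameter logistic fit between DMSO and reference-inhibitor controls.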

A further experiment deals with Mer (Homo sapiens (Human), UniProt Q12866). In words: Mer autophosphorylation ELISA in transient transfected 293A cells. The note with it: cellular, MERTK transfected 293A cells. As for the experimental part: 293A cells (Thermo Fisher #R70507) were seeded at 1.5×10^6 cells/well onto 100 mm dish (Greiner #664169), in DMEM (Thermo Fisher #11995-040) containing 10% FBS (Thermo Fisher #26140-079), 1% MEM NEAA (Thermo Fisher #11140-050), 1% GlutaMax (Thermo Fisher #35050-061), and 1% Penicillin Streptomycin (Thermo Fisher #15140-122). 293A cells were incubated at 37° C., 5% CO2 for 24 h and then transfected with 6 μg MERTK DNA (Genecopoeia #EX-Z8208-M02) using TransIT LT1 transfection reagent (Mirus-Bio #MIR2305). After 24 h incubation, the transfected 293A cells were seeded at 1×10^5 cells/well onto 96-well plates (Corning #3904) in DMEM growth medium overnight. Test compounds were serially diluted to produce an 8-point dose curve in fresh serum-free medium to a final concentration of 0.3% DMSO (vehicle) and added to the cells and incubated for 1 h. Cells were then immediately lysed with 150 μL of cold 1× lysis buffer [20 mM Tris, 137 mM sodium chloride, 2 mM EDTA, 10% glycerol, 1% NP-40 alternative, 1 mM activated sodium orthovanadate, 1 mM PefaBloc SC (Sigma-Aldrich #11429868001), protease/phosphatase inhibitor tablet (Thermo Fisher #A32959)]. Lysates were clarified by centrifugation and 50 μL/well added into the human phospho-Mer DuoSet IC ELISA (R&D Systems #DYC2579-2). Assay was performed according to manufacturer's instructions and sample phospho-Mer concentrations were extrapolated using human phospho-Mer control (R&D Systems #841793) as a standard. Positive control wells (100% activity) contained DMSO-treated cell lysates. Negative control wells (0% activity) contained reference inhibitor-treated cell lysates. IC50 values were calculated by nonlinear regression analysis using a 4-parameter logistic curve fit in ActivityBase XE (IDBS).

Another experiment deals with Met (Homo sapiens (Human), UniProt P08581). In words: Met autophosphorylation ELISA in PC-3 cells. The following applies: cellular, HGF stimulated, read-out: c-Met IC50. In short, it runs like this:
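Phospho-Met (panTyr) sandwich ELISA on lysates of PC-3 cells given 100 ng/mL HGF for 10 min after 1 h compound exposure (8-point curve, 0.3% DMSO) following 3 h serum starvation. Normalised to HGF-stimulated DMSO and reference-inhibitor wells; 4-parameter logistic IC50.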

Chain of Mer (Q12866 21-999): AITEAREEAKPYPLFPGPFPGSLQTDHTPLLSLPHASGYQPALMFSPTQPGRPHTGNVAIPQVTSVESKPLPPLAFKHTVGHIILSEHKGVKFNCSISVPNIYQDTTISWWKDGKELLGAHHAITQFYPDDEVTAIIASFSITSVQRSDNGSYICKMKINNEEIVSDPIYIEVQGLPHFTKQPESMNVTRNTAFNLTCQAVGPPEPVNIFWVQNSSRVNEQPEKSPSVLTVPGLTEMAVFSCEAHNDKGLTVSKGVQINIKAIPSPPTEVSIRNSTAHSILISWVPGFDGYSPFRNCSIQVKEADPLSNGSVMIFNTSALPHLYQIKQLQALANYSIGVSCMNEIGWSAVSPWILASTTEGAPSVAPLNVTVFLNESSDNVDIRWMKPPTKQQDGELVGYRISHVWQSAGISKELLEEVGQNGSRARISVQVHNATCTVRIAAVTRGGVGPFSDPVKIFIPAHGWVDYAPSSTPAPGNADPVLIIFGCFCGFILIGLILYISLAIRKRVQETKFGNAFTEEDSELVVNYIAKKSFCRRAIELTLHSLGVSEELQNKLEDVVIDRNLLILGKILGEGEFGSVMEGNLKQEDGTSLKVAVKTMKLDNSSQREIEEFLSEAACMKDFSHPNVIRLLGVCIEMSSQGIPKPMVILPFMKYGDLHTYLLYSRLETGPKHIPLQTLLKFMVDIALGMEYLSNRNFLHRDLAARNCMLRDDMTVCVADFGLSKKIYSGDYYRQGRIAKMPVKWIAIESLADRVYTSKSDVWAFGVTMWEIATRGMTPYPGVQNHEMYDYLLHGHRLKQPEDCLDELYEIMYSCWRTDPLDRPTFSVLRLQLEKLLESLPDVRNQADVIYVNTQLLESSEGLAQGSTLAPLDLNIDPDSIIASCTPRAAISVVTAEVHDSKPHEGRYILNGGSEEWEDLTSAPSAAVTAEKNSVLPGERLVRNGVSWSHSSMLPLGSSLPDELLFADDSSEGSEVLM
Chain of AXL (P30530 26-894): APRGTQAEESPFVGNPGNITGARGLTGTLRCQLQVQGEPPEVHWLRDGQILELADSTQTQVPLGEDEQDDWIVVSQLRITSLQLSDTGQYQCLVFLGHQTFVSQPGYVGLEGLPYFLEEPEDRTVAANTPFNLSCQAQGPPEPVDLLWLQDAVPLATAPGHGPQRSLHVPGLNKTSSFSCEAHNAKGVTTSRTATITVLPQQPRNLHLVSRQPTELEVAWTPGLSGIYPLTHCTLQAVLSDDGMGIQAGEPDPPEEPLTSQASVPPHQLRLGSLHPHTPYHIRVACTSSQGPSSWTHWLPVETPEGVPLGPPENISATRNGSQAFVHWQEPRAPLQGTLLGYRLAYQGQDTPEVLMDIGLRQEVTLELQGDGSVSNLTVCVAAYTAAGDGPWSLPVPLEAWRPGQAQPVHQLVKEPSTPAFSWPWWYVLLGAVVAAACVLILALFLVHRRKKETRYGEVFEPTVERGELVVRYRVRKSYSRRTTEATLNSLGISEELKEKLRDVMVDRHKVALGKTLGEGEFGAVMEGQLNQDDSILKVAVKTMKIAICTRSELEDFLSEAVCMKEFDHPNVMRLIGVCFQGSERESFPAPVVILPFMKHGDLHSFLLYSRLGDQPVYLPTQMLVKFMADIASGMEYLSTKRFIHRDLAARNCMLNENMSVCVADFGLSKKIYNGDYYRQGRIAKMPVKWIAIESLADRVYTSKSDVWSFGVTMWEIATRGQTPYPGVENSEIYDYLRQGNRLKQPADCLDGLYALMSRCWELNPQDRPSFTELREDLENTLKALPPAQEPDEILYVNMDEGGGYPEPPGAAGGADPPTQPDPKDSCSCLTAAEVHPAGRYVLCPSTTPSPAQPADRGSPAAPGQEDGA
Chain of Met (P08581 25-1390): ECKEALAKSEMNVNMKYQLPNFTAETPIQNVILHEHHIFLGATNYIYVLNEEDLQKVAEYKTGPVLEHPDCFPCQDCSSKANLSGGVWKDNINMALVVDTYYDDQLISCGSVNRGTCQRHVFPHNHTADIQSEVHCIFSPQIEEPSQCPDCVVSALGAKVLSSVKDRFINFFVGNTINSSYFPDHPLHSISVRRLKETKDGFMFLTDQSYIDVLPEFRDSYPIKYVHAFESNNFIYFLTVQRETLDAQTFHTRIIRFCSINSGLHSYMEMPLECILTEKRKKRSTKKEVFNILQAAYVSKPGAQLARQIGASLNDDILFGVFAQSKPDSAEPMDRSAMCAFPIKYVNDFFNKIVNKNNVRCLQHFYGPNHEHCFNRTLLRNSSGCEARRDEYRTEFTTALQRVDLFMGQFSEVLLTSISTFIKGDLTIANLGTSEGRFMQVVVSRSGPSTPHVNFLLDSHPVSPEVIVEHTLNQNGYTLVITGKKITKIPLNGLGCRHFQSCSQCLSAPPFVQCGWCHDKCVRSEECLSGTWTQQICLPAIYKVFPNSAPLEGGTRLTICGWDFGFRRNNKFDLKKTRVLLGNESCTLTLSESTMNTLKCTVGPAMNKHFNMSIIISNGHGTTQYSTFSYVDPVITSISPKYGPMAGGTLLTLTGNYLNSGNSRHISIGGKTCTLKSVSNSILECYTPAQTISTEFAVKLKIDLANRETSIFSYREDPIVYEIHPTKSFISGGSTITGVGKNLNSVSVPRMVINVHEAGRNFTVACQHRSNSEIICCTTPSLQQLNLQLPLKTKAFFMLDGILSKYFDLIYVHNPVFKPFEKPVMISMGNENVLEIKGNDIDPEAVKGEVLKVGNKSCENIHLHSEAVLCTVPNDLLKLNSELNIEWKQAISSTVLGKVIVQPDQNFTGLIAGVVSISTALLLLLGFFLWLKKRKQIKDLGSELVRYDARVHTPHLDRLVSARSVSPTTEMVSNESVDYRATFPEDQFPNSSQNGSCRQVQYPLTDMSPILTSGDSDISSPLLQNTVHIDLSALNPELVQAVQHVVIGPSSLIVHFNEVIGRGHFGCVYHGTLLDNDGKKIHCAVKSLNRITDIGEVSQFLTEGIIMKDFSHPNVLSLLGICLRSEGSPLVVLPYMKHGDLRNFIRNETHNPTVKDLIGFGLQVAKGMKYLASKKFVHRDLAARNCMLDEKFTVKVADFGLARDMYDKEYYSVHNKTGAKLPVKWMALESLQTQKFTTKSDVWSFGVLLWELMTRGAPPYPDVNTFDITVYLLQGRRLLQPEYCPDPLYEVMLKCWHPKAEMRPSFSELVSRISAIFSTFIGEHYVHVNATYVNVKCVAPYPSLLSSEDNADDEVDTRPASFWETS
Chain of KDR (P35968 20-1356): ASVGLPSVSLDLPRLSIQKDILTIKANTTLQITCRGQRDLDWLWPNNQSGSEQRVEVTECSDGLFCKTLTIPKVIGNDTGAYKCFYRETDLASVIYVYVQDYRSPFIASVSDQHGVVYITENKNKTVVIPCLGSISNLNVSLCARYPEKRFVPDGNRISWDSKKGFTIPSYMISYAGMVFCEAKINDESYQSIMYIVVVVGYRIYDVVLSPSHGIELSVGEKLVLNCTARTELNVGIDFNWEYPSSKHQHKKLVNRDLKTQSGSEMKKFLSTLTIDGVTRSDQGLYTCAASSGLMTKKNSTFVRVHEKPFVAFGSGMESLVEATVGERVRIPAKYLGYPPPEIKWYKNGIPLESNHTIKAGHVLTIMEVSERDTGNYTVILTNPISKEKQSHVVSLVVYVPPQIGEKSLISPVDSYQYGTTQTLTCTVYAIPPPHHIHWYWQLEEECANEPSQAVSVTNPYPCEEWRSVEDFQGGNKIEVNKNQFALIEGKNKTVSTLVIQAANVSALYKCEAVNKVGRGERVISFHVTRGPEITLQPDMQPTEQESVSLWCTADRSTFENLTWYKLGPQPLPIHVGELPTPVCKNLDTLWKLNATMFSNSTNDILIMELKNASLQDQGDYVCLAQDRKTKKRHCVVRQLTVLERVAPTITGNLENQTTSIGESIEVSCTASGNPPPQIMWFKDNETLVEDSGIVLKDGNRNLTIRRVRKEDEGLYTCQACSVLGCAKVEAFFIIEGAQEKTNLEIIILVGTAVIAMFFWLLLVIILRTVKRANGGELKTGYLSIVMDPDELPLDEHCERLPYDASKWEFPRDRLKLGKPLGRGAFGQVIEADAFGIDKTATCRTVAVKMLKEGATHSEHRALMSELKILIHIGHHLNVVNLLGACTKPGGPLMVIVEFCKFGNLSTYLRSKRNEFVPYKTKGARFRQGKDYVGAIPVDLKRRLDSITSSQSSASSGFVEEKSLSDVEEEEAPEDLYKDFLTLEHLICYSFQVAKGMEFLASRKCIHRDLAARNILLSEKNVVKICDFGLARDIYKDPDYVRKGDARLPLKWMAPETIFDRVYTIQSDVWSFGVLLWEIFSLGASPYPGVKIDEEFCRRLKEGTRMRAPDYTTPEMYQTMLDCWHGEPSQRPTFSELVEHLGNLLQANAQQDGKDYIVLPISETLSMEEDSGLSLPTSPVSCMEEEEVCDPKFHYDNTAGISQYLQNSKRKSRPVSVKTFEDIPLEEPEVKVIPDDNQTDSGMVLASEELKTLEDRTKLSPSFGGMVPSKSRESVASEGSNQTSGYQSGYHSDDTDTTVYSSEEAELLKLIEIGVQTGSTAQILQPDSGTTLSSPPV

With `COC(=O)Nc1cc2c(Oc3ccc(NC(=O)C4(C(=O)Nc5ccc(F)cc5)CC4)cc3)ccnc2cc1OC` [Compound 280, Methyl N-[4-[4-[[1-[(4-fluorophenyl)carbamoyl]cyclopropane-carbonyl]amino]phenoxy]-7-methoxyquinolin-6-yl]carbamate], the IC50 against KDR was at most 10 nM; against AXL, at most 10 nM; on Mer, at most 10 nM; at Met, 10 to 100 nM.

On to `COc1cc2nccc(Oc3ccc(NC(=O)C4(C(=O)Nc5ccc(F)cc5)CC4)cc3)c2cc1C(=O)NN` [Compound 32, 1-N′-(4-fluorophenyl)-1-N-[4-[6-(hydrazinecarbonyl)-7-methoxyquinolin-4-yl]oxyphenyl]cyclopropane-1,1-dicarboxamide], for which the 50% inhibitory concentration (IC50) against KDR was at most 10 nM; at AXL, at most 10 nM; against Mer, at most 10 nM; at Met it was 10 to 100 nM.

For the compound `COc1cc2nccc(Oc3ccc(NC(=O)C4(C(=O)Nc5ccc(F)cc5)CC4)cc3)c2cc1C(C)=O` [Compound 34, 1-N-[4-(6-acetyl-7-methoxyquinolin-4-yl)oxyphenyl]-1-N′-(4-fluorophenyl)cyclopropane-1,1-dicarboxamide], the IC50 at KDR was at most 10 nM; on AXL, at most 10 nM; against Mer it was at most 10 nM; at Met, 10 to 100 nM.

`CNC(=O)c1cc2c(Oc3ccc(NC(=O)C4(C(=O)Nc5ccc(F)cc5C)CC4)cc3F)ccnc2cc1OC` [Compound 265, 1-N-[3-Fluoro-4-[7-methoxy-6-(methylcarbamoyl)quinolin-4-yl]oxyphenyl]-1-N′-(4-fluoro-2-methylphenyl)cyclopropane-1,1-dicarboxamide]: the IC50 at KDR is 10 to 100 nM; against AXL, at most 10 nM; at Mer, 10 to 100 nM; on Met it was 10 to 100 nM.

As to `Cc1cc2c(Oc3cc(F)c(NC(=O)C4(C(=O)Nc5ccc(F)cc5)CC4)cc3F)ccnc2cc1C(N)=O` [Compound 294, 1-N′-[4-(7-Carbamoyl-6-methylquinolin-4-yl)oxy-2,5-difluorophenyl]-1-N-(4-fluorophenyl)cyclopropane-1,1-dicarboxamide], the IC50 on KDR is 10 to 100 nM; at AXL, at most 10 nM; against Mer, at most 10 nM; at Met, at most 10 nM.

With `Cc1cc2c(Oc3ccc(NC(=O)C4(C(=O)Nc5ccc(F)cc5)CC4)cc3F)ccnc2cc1C(N)=O` [Compound 293, 1-N′-[4-(7-Carbamoyl-6-methylquinolin-4-yl)oxy-3-fluorophenyl]-1-N-(4-fluorophenyl)cyclopropane-1,1-dicarboxamide], the IC50 on KDR, on AXL, against Mer and on Met was 10 to 100 nM each time.

Consider `COc1cc2nccc(Oc3ccc(NC(=O)C4(C(=O)Nc5ccc(F)cc5)CC4)cc3)c2cc1C(=O)NOC1COC1` [Compound 26, 1-N′-(4-fluorophenyl)-1-N-[4-[7-methoxy-6-(oxetan-3-yloxycarbamoyl)quinolin-4-yl]oxyphenyl]cyclopropane-1,1-dicarboxamide], for which the IC50 is at most 10 nM against KDR, 10 to 100 nM against AXL, 10 to 100 nM against Mer and 10 to 100 nM on Met.

As for `O=C(NOCCO)c1ccc2c(Oc3cc(F)c(NC(=O)C4(C(=O)Nc5ccc(F)cc5)CC4)cc3F)ccnc2c1` [Compound 302, 1-N′-[2,5-Difluoro-4-[7-(2-hydroxyethoxycarbamoyl)quinolin-4-yl]oxyphenyl]-1-N-(4-fluorophenyl)cyclopropane-1,1-dicarboxamide], the half-inhibitory concentration (IC50) is 100 to 300 nM against KDR, 10 to 100 nM against AXL, 100 to 300 nM at Mer and at most 10 nM on Met.

Take `NC(=O)c1cc2c(Oc3ccc(NC(=O)C4(C(=O)Nc5ccc(F)cc5)CC4)cc3)ccnc2cc1NCCCN1CCOCC1` [Compound 71, 1-N-[4-[6-Carbamoyl-7-(3-morpholin-4-ylpropylamino)quinolin-4-yl]oxyphenyl]-1-N′-(4-fluorophenyl)cyclopropane-1,1-dicarboxamide]: the 50% inhibitory concentration (IC50) against KDR, against AXL, against Mer and at Met was 10 to 100 nM throughout.

As for `CO/N=C/c1ccc2c(Oc3ccc(NC(=O)C4(C(=O)Nc5ccc(F)cc5)CC4)cc3)ccnc2c1` [Compound 278, 1-N′-(4-Fluorophenyl)-1-N-[4-[7-[(E)-methoxyiminomethyl]quinolin-4-yl]oxyphenyl]cyclopropane-1,1-dicarboxamide], the IC50 against KDR, on AXL, at Mer and at Met was 100 to 300 nM throughout.

As to `COc1cc2nccc(Oc3ccc(NC(=O)C4(C(=O)Nc5ccc(F)cc5)CC4)cc3)c2cc1C(=O)NOCC(O)CO` (single isomer, unassigned) [Compound 31, 1-N-[4-[6-(2,3-dihydroxypropoxycarbamoyl)-7-methoxyquinolin-4-yl]oxyphenyl]-1-N′-(4-fluorophenyl)cyclopropane-1,1-dicarboxamide], the half-maximal inhibitory concentration (IC50) is 10 to 100 nM against KDR, 10 to 100 nM at AXL, above 300 nM against Mer and 100 to 300 nM at Met.

With `CCC1NC(=O)c2cc3c(Oc4ccc(NC(=O)C5(C(=O)Nc6ccc(F)cc6)CC5)cc4)ccnc3cc2O1` (centres unmarked) [Compound 96, 1-N-[4-[(2-Ethyl-4-oxo-2,3-dihydropyrido[3,2-g][1,3]benzoxazin-6-yl)oxy]phenyl]-1-N′-(4-fluorophenyl)cyclopropane-1,1-dicarboxamide], the IC50 was 100 to 300 nM against KDR, 10 to 100 nM on AXL, 10 to 100 nM against Mer and 100 to 300 nM at Met.

Regarding `CC(O)COc1cc2nccc(Oc3ccc(NC(=O)C4(C(=O)Nc5ccc(F)cc5)CC4)cc3)c2cc1C(N)=O` (centres unmarked) [Compound 115, 1-N-[4-[6-Carbamoyl-7-(2-hydroxypropoxy)quinolin-4-yl]oxyphenyl]-1-N′-(4-fluorophenyl)cyclopropane-1,1-dicarboxamide], the 50% inhibitory concentration (IC50) was at most 10 nM at KDR, at most 10 nM against AXL, 10 to 100 nM at Mer and 10 to 100 nM at Met.

With `O=C(NOC[C@H](O)CO)c1ccc2c(Oc3ccc(NC(=O)C4(C(=O)Nc5ccc(F)cc5)CC4)cc3)ccnc2c1` [Compound 169, 1-N-[4-[7-[[(2R)-2,3-Dihydroxypropoxy]carbamoyl]quinolin-4-yl]oxyphenyl]-1-N′-(4-fluorophenyl)cyclopropane-1,1-dicarboxamide], the 50% inhibitory concentration (IC50) against KDR is 100 to 300 nM; at AXL it was 100 to 300 nM; at Mer it was above 300 nM; at Met, 100 to 300 nM.

`CCNC(=O)c1ccc2c(Oc3ccc(NC(=O)C4(C(=O)Nc5ccc(F)cc5)CC4)cc3)ccnc2c1` [Compound 214, 1-N-[4-[7-(Ethylcarbamoyl)quinolin-4-yl]oxyphenyl]-1-N′-(4-fluorophenyl)cyclopropane-1,1-dicarboxamide]: the half-maximal inhibitory concentration (IC50) against KDR, against AXL, against Mer and on Met was 10 to 100 nM throughout.

Take `CNC(=O)Nc1cc2c(Oc3ccc(NC(=O)C4(C(=O)Nc5ccc(F)cc5)CC4)cc3)ccnc2cc1OC` [Compound 279, 1-N′-(4-Fluorophenyl)-1-N-[4-[7-methoxy-6-(methylcarbamoylamino)-quinolin-4-yl]oxyphenyl]cyclopropane-1,1-dicarboxamide]: the half-inhibitory concentration (IC50) against KDR was at most 10 nM; at AXL, at most 10 nM; at Mer, at most 10 nM; on Met it was 10 to 100 nM.

In the case of `CNC(=O)c1cc2c(Oc3ccc(NC(=O)C4(C(=O)Nc5ccc(F)cc5Cl)CC4)cc3F)ccnc2cc1OC` [Compound 264, 1-N′-(2-Chloro-4-fluorophenyl)-1-N-[3-fluoro-4-[7-methoxy-6-(methylcarbamoyl)quinolin-4-yl]oxyphenyl]cyclopropane-1,1-dicarboxamide], the 50% inhibitory concentration (IC50) against KDR, on AXL, on Mer and on Met was 10 to 100 nM each time.

(Values after patent US11542259B2, “Compounds for the treatment of kinase-dependent disorders” (Exelixis, Inc., priority 2018, dated 2023).)
